According to US4455303A, “Renin inhibitors” (priority 1983, dated 1984):
Like-named read-outs stand apart in the source and are kept apart here. Where a SMILES comes first, the peptide text is derived from it. Where no end group is shown, it is not given here. [ ]: non-standard residue; d: D form. Phe(4-Cl) = N[C@@H](Cc1ccc(Cl)cc1)C(=O)O

Tests used:
[1] = tested on: isolated gut section; experiment: In vitro transport of radiolabeled pentapeptide across isolated gut section; type: in vitro ADME; details: radiolabeled pentapeptide added to one side of an isolated gut section, label measured on the other side
Source text: Of particular interest is the fact that the peptides of the present invention are short chained, and can potentially be used as orally active peptides.

[2] = target: T1, human renin (Homo sapiens, UniProt P00797); experiment: IC50 on human renin, angiotensin I generation from tetradecapeptide renin substrate (assay of Burton et al); type: biochemical
T1 sequence (P00797 67-406): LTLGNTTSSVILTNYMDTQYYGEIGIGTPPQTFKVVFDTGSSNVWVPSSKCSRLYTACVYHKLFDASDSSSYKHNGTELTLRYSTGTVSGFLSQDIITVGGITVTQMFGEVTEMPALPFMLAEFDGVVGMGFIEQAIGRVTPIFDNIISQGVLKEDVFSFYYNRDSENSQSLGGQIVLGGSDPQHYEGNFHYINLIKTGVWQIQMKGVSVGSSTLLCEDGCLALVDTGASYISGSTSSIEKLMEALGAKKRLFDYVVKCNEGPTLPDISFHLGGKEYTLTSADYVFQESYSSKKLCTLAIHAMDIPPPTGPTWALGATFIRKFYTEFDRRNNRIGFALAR
Description: The assay for testing the inhibitory activities of the pentapeptides on renin is described in Burton, J. et al, Biochem. 14: 3892-3898 (1975), which is herein incorporated by reference.
The 11 pentapeptides shown in Table I were synthesized by standard solid phase peptide synthesis as shown in the description following the table and the IC50 (concentration at which inhibition is 50%) value on human renin in the assay of Burton et al, supra, was determined for each sample.
Angiotensin I standards and tetradecapeptide renin substrate (TDP) were obtained from Peninsula Laboratories Inc. (San Mateo, CA). Renin was a gift of Dr. E. Slater (1980). Angiotensin I concentration was determined by radioimmunoassay using a commercially available kit (Clinical Assays, Cambridge, MA).
Standard renin solution (V3) is diluted 4-fold with M Tris-lysozyme buffer (pH 7.40). Concentration of […] of the renin inhibitor being tested are also prepared in the Tris-lysozyme buffer. For the uninhibited reaction Tris-lysozyme buffer alone is used in place of the inhibitor solution.
Reaction mixtures containing TDP solution ([…], 25 µM), renin solution (50 liters, 20-fold diluted), and the inhibitor (50 liters, 50-1000 M) were incubated for 1 hr at 37°, diluted 1000-fold and assayed for angiotensin I.
Inhibition is determined by the following equation:
% Inh.=((ng ANG Iunhib -ng ANG Iinh)/ng ANG
IC50 is determined by plotting Percent inhibition (% Inh.) against the inhibitor concentration and interpolating to determine the molarity of inhibitor at which 50% inhibition is observed.
Cross-reactivity of TDP with ANG I is less than 0.05%.

[3] = tested on: renin dependent hypertension; experiment: Acute renovascular hypertension model, inflatable aortic cuff, monkey; type: in vivo, Macaca fascicularis; details: one monkey, cuff inflated
Description: The animal model of acute renovascular hypertension is prepared by surgically implanting an inflatable cuff about the aorta above the left kidney of an adult Macaca fascicularis as descirbed by Cody, R. J. et al (1980) Hypertension. The right kidney is subsequently removed and catheters implanted in the right iliac vein and artery. Two arterial catheters lead from above and below the constricting cuff to strain gauges permit blood pressure to be measured both above and below the cuff.
Inflation of the cuff creates a measurable amount of ischemia to the remaining kidney and renin dependent hypertension develops in about one hour.
The results of the injection of (RI-78) on the blood pressure and plasma renin level of one monkey are summarized below. The converting enzyme inhibitor teprotide (Ondetti et al, 19) is used as a control.

[4] = target: renin; details: pH 7.4; Poulsen et al 1973; read-out: inhibitory constant (KI); cited from earlier work
[5] = Table I, human renin, read-out: IC50 (concentration at which inhibition is 50%)
[6] = IC50 (concentration at which inhibition is 50%), Table I, human renin
[7] = IC50, TDP substrate, pH 7.40, 1 hr at 37°
[8] = printed with the characterisation data of each peptide, TDP substrate, pH 7.40, 1 hr at 37°, read-out: IC50
[9] = time 145 min, injection of teprotide (control)

Compound: CC(C)[C@H](NC(=O)[C@H](Cc1ccc(Cl)cc1)NC(=O)[C@@H](N)Cc1ccccc1)C(=O)N[C@@H](Cc1ccc(O)cc1)C(=O)N[C@@H](CCCCN)C(N)=O [RI-80, Phenylalanyl-4-chlorophenylalanylvalyltyrosyllysineamide] (H-F[Phe(4-Cl)]VYK-NH2)
- transport across the gut [1]: transported across the gut
- IC50 [2, 5]: 40 µM

Compound: CC(C)[C@H](NC(=O)[C@H](Cc1ccccc1)NC(=O)[C@@H](N)Cc1ccc(Cl)cc1)C(=O)N[C@@H](Cc1ccc(O)cc1)C(=O)N[C@@H](CCCCN)C(N)=O [RI-78, 4-chlorophenylalanylphenylalanylvalyltyrosyllysine-amide] (H-[Phe(4-Cl)]FVYK-NH2)
- Blood Pressure ([3]; time 0 min, injection 0.5 mg RI-78): 113 mm Hg
- Blood Pressure ([3]; time 10 min, injection 2.5 mg RI-78): 65 mm Hg
- Blood Pressure ([3]; time 25 min (15 min after 2.5 mg RI-78), no further injection): 111 mm Hg
- Plasma Renin Activity ([3]; time 30 min (20 min after 2.5 mg RI-78), no further injection): 28.5
- IC50 [2, 6]: 70 µM
- IC50 [2, 7]: 70 µM

Compound: Phenylalanylphenylalanyl-threo-3-chloro-L-2-amino-butyryltyrosyllysine amide [RI-82]
- IC50 [2, 5]: 1250 µM
- IC50 [2, 8]: 2450 µM

Compound: FFVYK-NH2 [RI-77, Phenylalanylphenylalanylvalyltyrosyllysine-amide]
- IC50 [2, 6]: 80 µM

Compound: CC(C)[C@H](NC(=O)[C@H](Cc1ccccc1)NC(=O)[C@@H](N)Cc1ccccc1)C(=O)N[C@@H](Cc1ccc(Cl)cc1)C(=O)N[C@@H](CCCCN)C(N)=O [RI-85, Phenylalanylphenylalanylvalyl-4-chlorophenylalanyllysine-amide] (H-FFV[Phe(4-Cl)]K-NH2)
- IC50 [2, 6]: ~100 µM
- IC50 [2, 7]: 175 µM

Compound: FFTYK-NH2 [RI-83, Phenylalanylphenylalanylthreonyltyrosyllysine-amide]
- IC50 [2, 6]: 3750 µM

Compound: FFVFK-NH2 [RI-84, Phenylalanylphenylalanylvalylphenylalanyllysine-amide]
- IC50 [2, 6]: 750 µM

Compound: COc1ccc(C[C@H](NC(=O)[C@@H](N)Cc2ccccc2)C(=O)N[C@H](C(=O)N[C@@H](Cc2ccc(O)cc2)C(=O)N[C@@H](CCCCN)C(N)=O)C(C)C)cc1 [RI-102, Phenylalanyl-O-methyltyrosylvalyltyrosyllysine-amide] (H-FY(Me)VYK-NH2)
- IC50 [2, 6]: 190 µM

Compound: Leu-Leu-Val-TyrH2
- Ki [4]: 1020 µM

Compound: FYVYK-NH2 [RI-81, Phenylalanyltyrosylvalyltyrosyllysine-amide]
- IC50 [2, 6]: 80 µM
- IC50 [2, 7]: 150 µM

Compound: CC[C@H](C)[C@H](NC(=O)[C@H](CCC(N)=O)NC(=O)[C@@H]1CCCN1C(=O)[C@H](CCCNC(=N)N)NC(=O)[C@@H]1CCCN1C(=O)[C@H](Cc1c[nH]c2ccccc12)NC(=O)[C@@H]1CCC(=O)N1)C(=O)N1CCC[C@H]1C(=O)N1CCC[C@H]1C(=O)O [Teprotide, teprotide, reference compound]
- Blood Pressure [3, 9]: 76 mm Hg
- Plasma Renin Activity [3, 9]: ≥ 37

Compound: YFVYK-NH2 [RI-79, Tyrosylphenylalanylvalyltyrosyllysine-amide]
- IC50 [2, 5]: 140 µM
- IC50 [2, 8]: 50 µM
